In publication PMC9046087, “Structural basis of tethered agonism of the adhesion GPCRs ADGRD1 and ADGRF1” (Nature, 2022):
Ends that are not written are not given here.

Experiments:
Experiment in all cases: BRET assay using TRUPATH biosensors, Gi activation of ADGRF1
Type in all cases: cell-based
ADGRF1 [1] = biological target: T1, ADGRF1 (Homo sapiens, UniProt Q5T601, V765A); conditions: ADGRF1 V765^5.57bA
T1 construct: Flag (N); expressed in transfected cells; host or cells: HEK293F
Procedure, shortened: (§1)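 G protein activation by synthetic stalk peptides, read as GFP2-to-RLuc8 emission ratio from the fifth of five successive readings. Cells: HEK293F expressing receptor (WT or mutant) with GαsS-RLuc8 or Gαi1-RLuc8 plus Gβ3 and Gγ9-GFP2 (2:1:1:1). Pre-incubated 30 min at 37 °C; substrate coelenterazine 400a.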

ADGRF1 [2] = biological target: T2, ADGRF1 (Homo sapiens, UniProt Q5T601, Y668A); conditions: ADGRF1 Y668^3.40bA
T2 construct: Flag (N); expressed in transfected cells; host or cells: HEK293F
T2 sequence (Q5T601 20-910 Y668A): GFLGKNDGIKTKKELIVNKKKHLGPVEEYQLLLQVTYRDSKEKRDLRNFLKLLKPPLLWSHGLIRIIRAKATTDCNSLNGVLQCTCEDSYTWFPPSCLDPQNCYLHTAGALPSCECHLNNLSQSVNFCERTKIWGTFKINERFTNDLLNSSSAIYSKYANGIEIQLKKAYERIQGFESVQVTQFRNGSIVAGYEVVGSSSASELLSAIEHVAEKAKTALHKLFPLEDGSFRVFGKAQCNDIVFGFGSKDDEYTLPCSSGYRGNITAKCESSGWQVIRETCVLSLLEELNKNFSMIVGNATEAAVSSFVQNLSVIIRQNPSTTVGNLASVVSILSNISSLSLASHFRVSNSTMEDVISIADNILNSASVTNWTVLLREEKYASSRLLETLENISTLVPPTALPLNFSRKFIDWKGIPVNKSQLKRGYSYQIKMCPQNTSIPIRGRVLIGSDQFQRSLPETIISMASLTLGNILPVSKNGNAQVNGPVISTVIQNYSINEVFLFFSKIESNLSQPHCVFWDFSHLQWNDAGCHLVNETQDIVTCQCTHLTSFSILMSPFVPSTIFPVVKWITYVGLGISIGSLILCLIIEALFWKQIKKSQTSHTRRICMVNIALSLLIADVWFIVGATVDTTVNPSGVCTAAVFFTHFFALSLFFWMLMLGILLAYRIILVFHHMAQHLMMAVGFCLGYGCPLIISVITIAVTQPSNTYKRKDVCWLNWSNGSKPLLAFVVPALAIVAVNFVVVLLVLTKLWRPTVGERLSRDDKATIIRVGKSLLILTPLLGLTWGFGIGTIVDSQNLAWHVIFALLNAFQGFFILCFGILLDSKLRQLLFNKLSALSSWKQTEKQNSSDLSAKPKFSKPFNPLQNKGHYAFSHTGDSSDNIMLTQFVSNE
Procedure, shortened: as §1

ADGRF1 [3] = biological target: T3, ADGRF1 (Homo sapiens, UniProt Q5T601, T589A); conditions: ADGRF1 T589^1.40bA
T3 construct: Flag (N); expressed in transfected cells; host or cells: HEK293F
T3 sequence (Q5T601 20-910 T589A): as the sequence (Q5T601 20-910 Y668A) above, with T570A, A649Y counted along it
Procedure, shortened: as §1

ADGRF1 [4] = biological target: T4, ADGRF1 (Homo sapiens, UniProt Q5T601, Q830A); conditions: ADGRF1 Q830^7.49bA
T4 construct: Flag (N); expressed in transfected cells; host or cells: HEK293F
T4 sequence (Q5T601 20-910 Q830A): as the sequence (Q5T601 20-910 Y668A) above, with A649Y, Q811A counted along it
Procedure, shortened: as §1

ADGRF1 [5] = biological target: T5, ADGRF1 (Homo sapiens, UniProt Q5T601, G807W); conditions: ADGRF1 G807^6.56bW, n = 3
T5 construct: Flag (N); expressed in transfected cells; host or cells: HEK293F
T5 sequence (Q5T601 20-910 G807W): as the sequence (Q5T601 20-910 Y668A) above, with A649Y, G788W counted along it
Procedure, shortened: as §1

ADGRF1 [6] = biological target: T6, ADGRF1 (Homo sapiens, UniProt Q5T601, F747A); conditions: ADGRF1 F747^5.36bA, n = 3
T6 construct: Flag (N); expressed in transfected cells; host or cells: HEK293F
T6 sequence (Q5T601 20-910 F747A): as the sequence (Q5T601 20-910 Y668A) above, with A649Y, F728A counted along it
Procedure, shortened: as §1

ADGRF1 [7] = biological target: T7, ADGRF1 (Homo sapiens, UniProt Q5T601, A683G); conditions: ADGRF1 A683^3.55bG
T7 construct: Flag (N); expressed in transfected cells; host or cells: HEK293F
T7 sequence (Q5T601 20-910 A683G): as the sequence (Q5T601 20-910 Y668A) above, with A649Y, A664G counted along it
Procedure, shortened: as §1

ADGRF1 [8] = biological target: T8, ADGRF1 (Homo sapiens, UniProt Q5T601, M627A); conditions: ADGRF1 M627^2.50bA
T8 construct: Flag (N); expressed in transfected cells; host or cells: HEK293F
T8 sequence (Q5T601 20-910 M627A): as the sequence (Q5T601 20-910 Y668A) above, with M608A, A649Y counted along it
Procedure, shortened: as §1

ADGRF1 [9] = biological target: T9, ADGRF1 (Homo sapiens, UniProt Q5T601, Y684A); conditions: ADGRF1 Y684^3.56bA
T9 construct: Flag (N); expressed in transfected cells; host or cells: HEK293F
T9 sequence (Q5T601 20-910 Y684A): as the sequence (Q5T601 20-910 Y668A) above, with A649Y, Y665A counted along it
Procedure, shortened: as §1

ADGRF1 [10] = biological target: T10, ADGRF1 (Homo sapiens, UniProt Q5T601, L593A); conditions: ADGRF1 L593^1.47bA
T10 construct: Flag (N); expressed in transfected cells; host or cells: HEK293F
T10 sequence (Q5T601 20-910 L593A): as the sequence (Q5T601 20-910 Y668A) above, with L574A, A649Y counted along it
Procedure, shortened: as §1

ADGRF1 [11] = biological target: T11, ADGRF1 (Homo sapiens, UniProt Q5T601, W734A); conditions: ADGRF1 W734^ECL2A
T11 construct: Flag (N); expressed in transfected cells; host or cells: HEK293F
T11 sequence (Q5T601 20-910 W734A): as the sequence (Q5T601 20-910 Y668A) above, with A649Y, W715A counted along it
Procedure, shortened: as §1

ADGRF1 [12] = biological target: T12, ADGRF1 (Homo sapiens, UniProt Q5T601, F823A); conditions: ADGRF1 F823^7.42bA
T12 construct: Flag (N); expressed in transfected cells; host or cells: HEK293F
T12 sequence (Q5T601 20-910 F823A): as the sequence (Q5T601 20-910 Y668A) above, with A649Y, F804A counted along it
Procedure, shortened: as §1

ADGRF1 [13] = biological target: T13, ADGRF1 (Homo sapiens, UniProt Q5T601, F672A); conditions: ADGRF1 F672^3.44bA
T13 construct: Flag (N); expressed in transfected cells; host or cells: HEK293F
T13 sequence (Q5T601 20-910 F672A): as the sequence (Q5T601 20-910 Y668A) above, with A649Y, F653A counted along it
Procedure, shortened: as §1

ADGRF1 [14] = biological target: T14, ADGRF1 (Homo sapiens, UniProt Q5T601, T810A); conditions: ADGRF1 T810^6.59bA
T14 construct: Flag (N); expressed in transfected cells; host or cells: HEK293F
T14 sequence (Q5T601 20-910 T810A): as the sequence (Q5T601 20-910 Y668A) above, with A649Y, T791A counted along it
Procedure, shortened: as §1

[15] = n = 3, read-out: pEC50 (mean ± s.e.m.) (converted)

T1 sequence (Q5T601 20-910 V765A): as the sequence (Q5T601 20-910 Y668A) above, with A649Y, V746A counted along it

Emax (mean ± s.e.m.) (ADGRF1 [1]; n = 3): 92 ± 16 % of WT | EC50 (ADGRF1 [1]; [15]): 912 nM | Emax (mean ± s.e.m.) (ADGRF1 [2]; n = 3): 123 ± 17 % of WT | EC50 (ADGRF1 [2]; [15]): 355 nM | Emax (mean ± s.e.m.) (ADGRF1 [3]; n = 3): 114 ± 13 % of WT | EC50 (ADGRF1 [3]; [15]): 87.1 nM | Emax (mean ± s.e.m.) (ADGRF1 [4]; n = 3): 124 ± 15 % of WT | EC50 (ADGRF1 [4]; [15]): 851 nM | EC50 (ADGRF1 [5]): 1520 nM | Emax (mean ± s.e.m.) (ADGRF1 [5]): 101 ± 13 % of WT | EC50 (ADGRF1 [6]): 1220 nM | Emax (mean ± s.e.m.) (ADGRF1 [6]): 80 ± 13 % of WT | Emax (mean ± s.e.m.) (ADGRF1 [7]; n = 3): 111 ± 13 % of WT | EC50 (ADGRF1 [7]; [15]): 339 nM | Emax (mean ± s.e.m.) (ADGRF1 [8]; n = 3): 113 ± 8 % of WT | EC50 (ADGRF1 [8]; [15]): 692 nM | Emax (mean ± s.e.m.) (ADGRF1 [9]; n = 3): 115 ± 17 % of WT | EC50 (ADGRF1 [9]; [15]): 813 nM | Emax (mean ± s.e.m.) (ADGRF1 [10]; n = 3): 106 ± 11 % of WT | EC50 (ADGRF1 [10]; [15]): 562 nM | Emax (mean ± s.e.m.) (ADGRF1 [11]; n = 3): 60 ± 11 % of WT | EC50 (ADGRF1 [11]; [15]): 138 nM | Emax (mean ± s.e.m.) (ADGRF1 [12]; n = 3): 90 ± 14 % of WT | EC50 (ADGRF1 [12]; [15]): 316 nM | Emax (mean ± s.e.m.) (ADGRF1 [13]; n = 3): 72 ± 12 % of WT | EC50 (ADGRF1 [13]; [15]): 437 nM | Emax (mean ± s.e.m.) (ADGRF1 [14]; n = 3): 81 ± 12 % of WT | EC50 (ADGRF1 [14]; [15]): 562 nM
Sequence: TSFSILMSPFVP [pF1]
